Like-named read-outs stand apart in the source and are kept apart here.

24 molecules from patent US20220112217A1, “PYRAZOLOPYRIMIDINE DERIVATIVE AND USE THEREOF AS PI3K INHIBITOR” (MEDSHINE DISCOVERY INC., priority 2018, published 2022) can be followed below.

One data set deals with PI3K beta (Homo sapiens, UniProt P42338). Kind of data set: In vitro enzyme activity assay (ADP-Glo lipid kinase), PI3K beta. In general terms: ADP-Glo first removes unused ATP, then detects ADP through luciferase.
Chain of PI3K beta (P42338 whole entry): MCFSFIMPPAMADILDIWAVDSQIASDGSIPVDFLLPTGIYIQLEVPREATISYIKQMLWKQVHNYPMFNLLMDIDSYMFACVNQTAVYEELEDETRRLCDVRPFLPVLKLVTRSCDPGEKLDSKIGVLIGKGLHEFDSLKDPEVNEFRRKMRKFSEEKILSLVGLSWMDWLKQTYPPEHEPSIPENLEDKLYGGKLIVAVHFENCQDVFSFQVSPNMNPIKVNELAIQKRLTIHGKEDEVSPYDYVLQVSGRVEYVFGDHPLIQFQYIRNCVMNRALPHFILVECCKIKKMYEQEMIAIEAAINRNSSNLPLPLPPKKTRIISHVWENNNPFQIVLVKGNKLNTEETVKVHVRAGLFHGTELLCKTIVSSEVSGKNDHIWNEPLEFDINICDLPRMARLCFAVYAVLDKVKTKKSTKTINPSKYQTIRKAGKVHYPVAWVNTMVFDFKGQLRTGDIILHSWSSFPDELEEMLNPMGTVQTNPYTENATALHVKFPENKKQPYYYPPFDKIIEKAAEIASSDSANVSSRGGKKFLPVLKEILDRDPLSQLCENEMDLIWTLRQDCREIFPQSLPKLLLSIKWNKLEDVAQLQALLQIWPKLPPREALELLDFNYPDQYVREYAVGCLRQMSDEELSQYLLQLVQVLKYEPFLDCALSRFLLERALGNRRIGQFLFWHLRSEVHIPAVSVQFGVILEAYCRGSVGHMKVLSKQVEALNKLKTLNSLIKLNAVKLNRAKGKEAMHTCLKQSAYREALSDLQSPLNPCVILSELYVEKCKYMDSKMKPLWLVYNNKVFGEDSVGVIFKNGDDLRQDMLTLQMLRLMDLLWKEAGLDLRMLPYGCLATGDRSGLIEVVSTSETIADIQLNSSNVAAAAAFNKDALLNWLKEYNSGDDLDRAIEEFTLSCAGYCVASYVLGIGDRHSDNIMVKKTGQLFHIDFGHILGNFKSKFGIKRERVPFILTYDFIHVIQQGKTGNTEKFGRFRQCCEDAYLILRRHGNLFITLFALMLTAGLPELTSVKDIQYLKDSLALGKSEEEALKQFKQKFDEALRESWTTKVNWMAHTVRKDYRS
Chain of PI3K beta (P27986 whole entry partner): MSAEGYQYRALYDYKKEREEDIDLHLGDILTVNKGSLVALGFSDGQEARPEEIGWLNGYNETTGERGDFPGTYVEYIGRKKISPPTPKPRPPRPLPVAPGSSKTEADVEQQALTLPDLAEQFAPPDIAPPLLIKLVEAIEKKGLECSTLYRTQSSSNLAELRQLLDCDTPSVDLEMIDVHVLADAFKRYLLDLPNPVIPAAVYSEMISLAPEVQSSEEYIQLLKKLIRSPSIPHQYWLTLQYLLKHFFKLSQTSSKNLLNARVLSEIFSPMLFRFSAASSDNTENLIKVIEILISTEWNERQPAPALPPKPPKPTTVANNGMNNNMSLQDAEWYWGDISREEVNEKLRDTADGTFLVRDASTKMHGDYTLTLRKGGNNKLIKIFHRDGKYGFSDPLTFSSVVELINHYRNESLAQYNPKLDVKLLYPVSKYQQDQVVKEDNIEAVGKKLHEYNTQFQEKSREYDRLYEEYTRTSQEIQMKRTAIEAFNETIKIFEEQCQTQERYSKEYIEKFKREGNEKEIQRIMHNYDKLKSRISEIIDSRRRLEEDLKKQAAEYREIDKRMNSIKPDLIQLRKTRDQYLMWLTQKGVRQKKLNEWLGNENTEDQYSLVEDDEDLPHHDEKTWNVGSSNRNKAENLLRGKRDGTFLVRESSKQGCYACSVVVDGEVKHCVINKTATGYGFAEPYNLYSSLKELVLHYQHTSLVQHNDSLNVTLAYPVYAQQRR
For the next data set, the target named is PI3K alpha (Homo sapiens, UniProt P42336). Kind of data set: In vitro enzyme activity assay (ADP-Glo lipid kinase), PI3K alpha.
Chain of PI3K alpha (P42336 whole entry): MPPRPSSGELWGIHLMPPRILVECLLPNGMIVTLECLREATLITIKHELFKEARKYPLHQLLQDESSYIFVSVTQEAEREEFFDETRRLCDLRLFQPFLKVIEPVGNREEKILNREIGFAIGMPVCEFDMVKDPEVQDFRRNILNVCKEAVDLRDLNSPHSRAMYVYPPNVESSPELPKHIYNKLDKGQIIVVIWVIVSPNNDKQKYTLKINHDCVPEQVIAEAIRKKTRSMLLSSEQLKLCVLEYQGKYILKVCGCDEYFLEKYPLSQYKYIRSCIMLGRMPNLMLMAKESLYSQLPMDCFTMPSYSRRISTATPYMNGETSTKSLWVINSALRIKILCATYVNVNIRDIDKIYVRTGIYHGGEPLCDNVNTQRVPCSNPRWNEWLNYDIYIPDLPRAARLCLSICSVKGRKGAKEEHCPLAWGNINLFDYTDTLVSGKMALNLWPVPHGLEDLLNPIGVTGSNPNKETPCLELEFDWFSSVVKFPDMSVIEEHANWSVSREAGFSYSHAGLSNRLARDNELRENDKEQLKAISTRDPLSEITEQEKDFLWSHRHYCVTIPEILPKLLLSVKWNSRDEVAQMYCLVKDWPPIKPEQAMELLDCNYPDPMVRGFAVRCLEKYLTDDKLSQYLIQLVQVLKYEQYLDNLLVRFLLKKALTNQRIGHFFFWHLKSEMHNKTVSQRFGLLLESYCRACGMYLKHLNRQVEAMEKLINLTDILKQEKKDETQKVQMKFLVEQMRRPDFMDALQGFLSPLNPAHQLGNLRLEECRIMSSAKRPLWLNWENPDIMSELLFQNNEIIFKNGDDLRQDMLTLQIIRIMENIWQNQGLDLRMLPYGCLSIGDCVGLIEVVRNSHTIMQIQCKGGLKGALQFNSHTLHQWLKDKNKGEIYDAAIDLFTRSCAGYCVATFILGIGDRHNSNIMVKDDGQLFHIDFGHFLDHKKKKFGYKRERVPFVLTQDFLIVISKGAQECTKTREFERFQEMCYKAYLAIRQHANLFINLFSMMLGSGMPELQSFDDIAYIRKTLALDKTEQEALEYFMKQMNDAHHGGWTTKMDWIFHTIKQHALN
Chain of PI3K alpha (P27986 whole entry partner): as the sequence (P27986 whole entry partner) above
For a further data set, the target named is PI3K delta (Homo sapiens, UniProt O00329). Kind of data set: In vitro enzyme activity assay (ADP-Glo lipid kinase), PI3K delta.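 Further: kinase reaction run at 23 °C, then leftover ATP depleted and the ADP formed turned back into ATP, with the luciferin/luciferase signal read as kinase activity.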 The settings on record: PI3Kδ IC50, ATP 40 μM, PIP2:3PS 50 μM, 120 min.
Chain of PI3K delta (O00329 whole entry): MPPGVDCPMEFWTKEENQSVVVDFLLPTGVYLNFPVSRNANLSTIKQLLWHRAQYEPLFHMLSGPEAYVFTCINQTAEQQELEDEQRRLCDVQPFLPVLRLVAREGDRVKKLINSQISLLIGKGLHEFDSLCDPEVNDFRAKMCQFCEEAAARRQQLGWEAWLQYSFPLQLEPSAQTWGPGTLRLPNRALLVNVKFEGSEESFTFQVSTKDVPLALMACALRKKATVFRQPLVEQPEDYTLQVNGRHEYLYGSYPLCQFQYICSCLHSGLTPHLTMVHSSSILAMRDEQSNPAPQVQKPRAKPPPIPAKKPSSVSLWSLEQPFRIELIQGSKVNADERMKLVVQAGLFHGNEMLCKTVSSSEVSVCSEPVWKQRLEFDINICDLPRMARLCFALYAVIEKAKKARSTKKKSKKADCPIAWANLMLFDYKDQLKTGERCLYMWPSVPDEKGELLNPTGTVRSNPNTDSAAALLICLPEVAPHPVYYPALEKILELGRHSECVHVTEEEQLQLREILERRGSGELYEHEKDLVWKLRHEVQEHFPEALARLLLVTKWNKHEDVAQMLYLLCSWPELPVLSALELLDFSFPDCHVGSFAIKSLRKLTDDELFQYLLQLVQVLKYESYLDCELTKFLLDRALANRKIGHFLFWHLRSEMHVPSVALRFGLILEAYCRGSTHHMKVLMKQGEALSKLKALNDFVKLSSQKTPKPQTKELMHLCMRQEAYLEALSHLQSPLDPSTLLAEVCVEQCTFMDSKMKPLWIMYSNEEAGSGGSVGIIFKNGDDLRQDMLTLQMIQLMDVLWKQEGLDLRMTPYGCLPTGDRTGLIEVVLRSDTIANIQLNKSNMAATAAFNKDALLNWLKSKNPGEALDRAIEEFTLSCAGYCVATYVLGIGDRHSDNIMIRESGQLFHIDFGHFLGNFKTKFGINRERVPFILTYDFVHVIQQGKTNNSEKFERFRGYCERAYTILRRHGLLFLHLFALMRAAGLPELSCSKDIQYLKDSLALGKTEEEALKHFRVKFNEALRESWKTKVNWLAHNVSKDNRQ
Chain of PI3K delta (P27986 whole entry partner): as the sequence (P27986 whole entry partner) above
The next data set deals with PI3K gamma (Homo sapiens, UniProt P48736). Kind of data set: In vitro enzyme activity assay (ADP-Glo lipid kinase), PI3K gamma. The settings on record: PI3Kγ IC50, ATP 25 μM, PIP2:3PS 50 μM, 120 min.
Chain of PI3K gamma (P48736 whole entry): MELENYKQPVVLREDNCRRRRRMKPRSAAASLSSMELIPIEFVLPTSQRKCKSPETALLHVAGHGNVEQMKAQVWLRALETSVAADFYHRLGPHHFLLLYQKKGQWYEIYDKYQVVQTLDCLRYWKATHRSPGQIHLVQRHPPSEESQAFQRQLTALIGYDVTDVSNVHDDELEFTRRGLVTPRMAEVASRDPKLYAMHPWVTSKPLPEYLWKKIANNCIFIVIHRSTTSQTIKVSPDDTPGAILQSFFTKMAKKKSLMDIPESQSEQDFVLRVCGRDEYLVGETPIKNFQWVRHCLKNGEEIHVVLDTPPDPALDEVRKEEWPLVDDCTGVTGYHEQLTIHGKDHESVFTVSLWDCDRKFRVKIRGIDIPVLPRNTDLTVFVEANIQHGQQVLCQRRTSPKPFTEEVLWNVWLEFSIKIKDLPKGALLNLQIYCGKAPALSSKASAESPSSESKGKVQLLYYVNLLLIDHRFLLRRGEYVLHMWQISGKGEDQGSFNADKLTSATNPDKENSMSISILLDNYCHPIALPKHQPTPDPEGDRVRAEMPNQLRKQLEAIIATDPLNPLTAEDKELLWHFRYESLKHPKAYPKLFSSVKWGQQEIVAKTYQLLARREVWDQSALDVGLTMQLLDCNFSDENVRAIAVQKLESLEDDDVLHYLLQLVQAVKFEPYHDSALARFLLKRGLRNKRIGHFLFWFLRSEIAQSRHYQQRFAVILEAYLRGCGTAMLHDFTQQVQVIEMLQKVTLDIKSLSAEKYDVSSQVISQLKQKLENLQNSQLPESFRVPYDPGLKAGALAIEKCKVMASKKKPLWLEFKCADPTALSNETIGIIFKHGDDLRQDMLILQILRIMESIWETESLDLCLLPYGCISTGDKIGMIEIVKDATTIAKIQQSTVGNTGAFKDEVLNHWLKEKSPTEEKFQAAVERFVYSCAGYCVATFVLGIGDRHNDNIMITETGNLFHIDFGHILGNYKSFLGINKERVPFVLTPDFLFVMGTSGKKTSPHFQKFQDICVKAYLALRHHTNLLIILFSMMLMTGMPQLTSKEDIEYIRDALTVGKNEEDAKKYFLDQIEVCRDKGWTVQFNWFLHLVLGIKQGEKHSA
For another data set, the system named is TMD-8 cell. Kind of data set: TMD-8 cell viability test (CellTiter-Glo, 72 h). It counts as cell-based. The following applies: Homo sapiens, TMD8. The protocol: 7) After incubation, readings at 620 and 665 nm on EnVingen were recorded. • <2> TMD-8 cell viability test • 1) Cell Culture
Cells were regularly passaged. Cells at logarithmic growth phase were transferred to the plate. • 2) Plating • (1). Cells were stained with trypan blue and viable cells were counted. • (2). Cell concentration was adjusted to 7000 cells/well • (3). 90 μL of cell suspension was added to each well of the plate and cell-free medium was added to blank control wells. • (4). The plate was incubated overnight at 37° C., 5% CO2 and 100% relative humidity in an incubator. • 3) Preparation of Plate Containing Compound Stock
(1). Preparation of plate containing 400× compound stock: Compounds were diluted from the highest concentration gradient to lowest concentration with DMSO. • 4) Preparation of 10× compound working solution and treatment • (1). Preparation of 10× compound working solution: 78 μL of cell culture medium was added to a V-bottom 96-well plate, and 2 μL of compound stock solution was pipetted from the plate containing 400× compound stock into the cell cultures of 96-well plate. 2 μL of DMSO was added to the vehicle control wells and blank control wells. After compounds or DMSO was added, the mixture was well mixed by a pipette. • (2). 10 μL of DMSO-cell culture medium mixture solution was added to the vehicle control wells and blank control wells. The final concentration of DMSO was 0.25%. • (3). The 96-well cell plate was incubated in the incubator for another 72 h. • 5) CellTiter-Glo Luminescent Cell Viability Assay
The following procedure was performed according to the instructions of Promega CellTiter-Glo luminescent cell viability assay kit (Promega-G7573). • (1). CellTiter-Glo buffer was thawed and let stand at room temperature. • (2). The CellTiter-Glo substrate was let stand at room temperature. • (3). The CellTiter-Glo buffer was added to a flask of CellTiter-Glo substrate to dissolve the substrate, thereby preparing a CellTiter-Glo working solution. • (4). The solution was vortexed to completely dissolve the substrate. • (5). The plate was incubated at room temperature for 30 min for equilibration. • (6). 50 μL (equal to half the volume of cell culture medium in each well) of CellTiter-Glo working solution was added to each well. The plate was covered by aluminum foil to avoid light. • (7). The plate was shaken on an orbital shaker for 2 min to induce cell lysis. • (8). The plate was let stand at room temperature for 10 min to stabilize the luminescence signals. • (9). The luminescence signals were detected on 2104 EnVision plate reader.

The nature of data set [1]: In vivo DMPK study, single dose in female Balb/c mice. The settings on record: for half-life: female, Balb/c, 1 mg/kg, note lists it as an intravenous parameter, read-out: T1/2 (half-life) (converted); for half-life / Cmax: mouse, plasma; for half-life / Oral DNAUC (dose-normalized area under curve): mice; for Cmax: oral 3 mg/kg, female Balb/c mice. The method, then:
Objective: To evaluate the plasma concentration of the compounds and pharmacokinetics after a single dose in female Balb/c mice.
Procedures: 8 healthy adult female Balb/c mice were randomized, 4 for intravenous administration and 4 for oral administration. The compounds were mixed with a proper amount of vehicle for intravenous injection (DMSO/PEG200/water (5:45:50 v/v/v)). The mixture was vortexed and treated with ultrasound to give a 1.0 mg/mL clear solution. The clear solution was filtered through a microporous membrane filter for later use. For the oral group, the vehicle was 0.5% MC/0.2% Tween 80. The compound was mixed with the vehicle, and the mixture was vortexed and ultrasonically treated to give 1.0 mg/mL uniform suspension for later use. The mice were administered intravenously at 1 mg/kg or orally at 3 mg/kg. Whole blood was collected at certain time points, and plasma was separated. The drug concentration was measured by LC-MS/MS, and pharmacokinetic parameters were calculated using
Phoenix WinNonlin software (Pharsight, USA).

Description for PI3K alpha: (§1) An appropriate substrate and ATP were incubated at a suitable condition for lipid kinase reaction, followed by a two-step detection of kinase activity using an ADP-Glo™ kit. Step I: The kinase reaction was terminated and residual ATP was completely removed, leaving ADP only; Step II: A kinase assay reagent was added to convert ADP to ATP by a luciferin/luciferase reaction. Finally, a fluorescence output value was detected and converted into kinase activity.
(§2) • 2) Kit: ADP-Glo™ lipid kinase and PIP2:3PS kit (Promega #V1792)
(§3) The mixture was incubated at 23° C. for 20 min • (10) 2 μL of ATP solution was added, and the mixture was centrifuged at 1000 rpm and was shaken to mix well • (11) The plate was covered, shaken for about 30 s, and incubated for 2 h at 23° C. • (12) 5 μL of ADP-Glo reagent containing 10 mM MgCl2 was added • (13) The mixture was centrifuged at 1000 rpm for 10 s, covered and shaken for about 30 s, and incubated at 23° C. for 60 min • (14) 10 μL of kinase assay reagent was added • (15) The mixture was centrifuged at 1000 rpm for 10 s, and incubated at 23° C. for 60 min • (16) Fluorescence values were measured by an Envision system. • 2. […] The mixture was incubated at 37° C./CO2 for 10 min. • 5) The compound was removed by pipette. Lysis buffer was added at 50 μL/well, and the cells wereincubated on a shaker for 30 min. • 6) After the cells were completely lysed, 16 μL of lysate was transferred to a 384-well plate and 4 μL of prepared AC+D2 in the kit was added. (AC: Eu3+-cryptate antibody binds to phosphorylated AKT, while D2 binds to non-phosphorylated AKT) The mixture was incubated at room temperature for 4 h.
Description for PI3K beta: as §1, §2, §3
Description for PI3K delta: as §1, §2
The kit comprises: 1 mM PIP2:3PS, 10× lipid dilution buffer, 1 M magnesium chloride, 10 mM ATP, 10 mM ADP, ADP-Glo reagent, detection buffer and substrate. • 3) Plate: OptiPlate-384, white and transparent (PerkinElmer #6007299) Reagent preparation: • 1) 10x reaction buffer: 500 mM HEPES (4-(2-hydroxyethyl)-1-piperazineethanesulfonic acid), pH 7.5, 500 mM NaCl, 9 mM MgCl2; BSA: 10% stock solution, prepared in-house • 2) Condition for final test system: 1× reaction system: 50 mM HEPES, 50 mM NaCl, 3 mM MgCl2, 0.01% BSA (prepared on the day of experiment), 1% DMSO (v/v) +/−compound • 3) Reaction system: 3 μL of enzyme and substrate mixture (1:1) +2 μL of ATP/MgCl2 mixture +5 μL of ADP-Glo reagent +10 μL detection reagent.
The specific experimental procedures are as follows: • 1) Dilution: 50 nL of 100× compound/DMSO solution were transferred into a test plate using Echo • For PI3Kα, the compound was serially diluted by three fold from the highest concentration 0.111 mM to the 10th concentration. • For PI3Kβ/PI3Kδ/PI3Kγ, the compound was serially diluted by three fold from the highest concentration of 1.11 mM to the 10th concentration. • 2) Kinase reaction: • (1) The target compounds were prepared. 50 nL of 100× compound solution or DMSO was added to the corresponding plate • (2) A 3.33 × reaction buffer was prepared • (3) A 3.33× PIP2:3PS solution were prepared; the PIP2:3PS solution should be thawed by vortex for at least 1 min before use • (4) An ATP solution containing 5.25 mM MgCl2 was prepared • (5) 3.33× PI3Kα/PI3Kβ/PI3Kδ/PI3Kγ solutions were prepared • (6) The lipid kinase solution and PIP2:3PS solution were mixed at a volume ratio of 1:1 • (7) The 3.33 × lipid kinase buffer and PIP2:3PS solution were mixed at a volume ratio of 1:1 • (8) 3 μL of the mixed solution of reaction buffer and PIP2:3PS was added to Columns 1 and 2 of the plate • (9) 3 μL of the mixed solution of the enzyme and PIP2:3PS was added to the wells of the plate other than Columns 1 and 2, and was centrifuged for 10 s (1000 rpm). The mixture was incubated at 23° C. for 20 min • (10) 2 μL of ATP solution was added, and the mixture was centrifuged at 1000 rpm and was shaken to mix well • (11) The plate was covered, shaken for about 30 s, and incubated for 2 h at 23° C. • (12) 5 μL of ADP-Glo reagent containing 10 mM MgCl2 was added • (13) The mixture was centrifuged at 1000 rpm for 10 s, covered and shaken for about 30 s, and incubated at 23° C. for 60 min • (14) 10 μL of kinase assay reagent was added • (15) The mixture was centrifuged at 1000 rpm for 10 s, and incubated at 23° C. for 60 min • (16) Fluorescence values were measured by an Envision system. • 2.
Description for PI3K gamma: as §1, §2, §3

As for `CC(C)Oc1ccc(-c2nn(C(C)c3nc4ccc(F)cn4c(=O)c3-c3cccc(F)c3)c3ncnc(N)c23)cc1F` (single isomer, unassigned) [WX002], the IC50 was above 10000 nM at PI3K beta (read-out: PI3Kβ IC50, ATP 40 μM, PIP2:3PS 50 μM, 120 min); above 10000 nM at PI3K alpha (read-out: PI3Kα IC50, ATP 40 μM, PIP2:3PS 50 μM, 120 min); above 1000 nM against PI3K delta; above 10000 nM against PI3K gamma.

With `CC(C)Oc1ccc(-c2nn(C(C)c3nc4ccc(F)cn4c(=O)c3-c3cccc(F)c3)c3ncnc(N)c23)cn1` (single isomer, unassigned) [WX003], the IC50 against PI3K delta is above 1000 nM; against PI3K gamma, above 10000 nM.

`COc1ncc(-c2nn(C(C)c3nc4ccc(F)cn4c(=O)c3-c3cccc(F)c3)c3ncnc(N)c23)cc1C#N` (single isomer, unassigned) [WX006]: the results for the IC50 at PI3K delta and on PI3K gamma were above 1000 nM and above 10000 nM, respectively.

Turning to `COc1ncc(-c2nn(C(C)c3nc4ccc(F)cn4c(=O)c3-c3cccc(F)c3)c3ncnc(N)c23)s1` (single isomer, unassigned) [WX008], the IC50 at PI3K delta is 783 nM; against PI3K gamma, above 10000 nM.

On to `COc1ccc(-c2nn(C(C)c3nc4ccc(F)cn4c(=O)c3-c3cccc(F)c3)c3ncnc(N)c23)cn1` (single isomer, unassigned) [WX011], for which the IC50 was 604 nM against PI3K delta and above 10000 nM on PI3K gamma.

With `CC(C)Oc1ccc(-c2nn(C(C)c3nc4c(F)cccn4c(=O)c3-c3cccc(F)c3)c3ncnc(N)c23)cc1F` (single isomer, unassigned) [WX013], the IC50 on PI3K delta stood at 297 nM; at PI3K gamma, 573 nM.

Regarding `CC(C)Oc1ncc(-c2nn(C(C)c3nc4ccc(F)cn4c(=O)c3-c3cccc(F)c3)c3ncnc(N)c23)cc1C#N` (single isomer, unassigned) [WX024], the IC50 was determined as 313 nM against PI3K delta and 7170 nM against PI3K gamma.

Regarding `CC(C)Oc1ncc(-c2nn(C(C)c3nc4ccc(F)cn4c(=O)c3-c3cccc(F)c3)c3ncnc(N)c23)cc1C#N` (single isomer, unassigned) [WX025], the IC50 against PI3K delta is 461 nM; at PI3K gamma it was 1130 nM.

With `COc1ccc(-c2nn(C(C)c3nc4ccc(F)cn4c(=O)c3-c3cccc(F)c3)c3ncnc(N)c23)cc1F` (stereo not drawn) [WX009], the figures for the IC50 against PI3K delta and at PI3K gamma were above 1000 nM and above 10000 nM, respectively.

With `CC(C)Oc1ccc(-c2nn(C(C)c3nc4c(Cl)cc(F)cn4c(=O)c3-c3cccc(F)c3)c3ncnc(N)c23)cc1F` (stereo not drawn) [WX014], the IC50 against PI3K delta turned out to be 229 nM; against PI3K gamma, 620 nM.

In the data set on TMD-8 cell, `CC(c1nc2ccc(F)cn2c(=O)c1-c1cccc(F)c1)n1nc(-c2cnc(OCC(F)F)s2)c2c(N)ncnc21` (stereo not drawn) [WX016] displayed an IC50 of 4110 nM. Further, in data set [1], the half-life is 3.85 h, the peak level (Cmax) was 2180 nM and the “Oral DNAUC (dose-normalized area under curve)” value was 5599 nM · h/mpk. The molecule also yielded an IC50 against PI3K delta of 41.5 nM. 260 nM corresponded to half-maximal inhibition against PI3K gamma (IC50).

Turning to `COCCOc1ncc(-c2nn(C(C)c3nc4ccc(F)cn4c(=O)c3-c3cccc(F)c3)c3ncnc(N)c23)s1` (stereo not drawn) [WX018], the IC50 came out at 3420 nM in the data set on TMD-8 cell, 122 nM at PI3K delta and 1550 nM against PI3K gamma. In addition, in data set [1], the half-life is 1.4 h. In data set [1], this molecule gave a peak concentration (Cmax) of 2240 nM. Also, the “Oral DNAUC (dose-normalized area under curve)” value in data set [1] is 1244 nM · h/mpk.

Turning to `CC(c1nc2ccc(F)cn2c(=O)c1-c1cccc(F)c1)n1nc(-c2cnc(OC3CC(F)(F)C3)s2)c2c(N)ncnc21` (stereo not drawn) [WX020], the IC50 in the data set on TMD-8 cell was above 50000 nM; against PI3K delta, 491 nM; against PI3K gamma, 275 nM.

Take `Cc1nc(C)c(-c2nn(C(C)c3nc4ccc(F)cn4c(=O)c3-c3cccc(F)c3)c3ncnc(N)c23)s1` (stereo not drawn) [WX022]: the IC50 at PI3K delta was determined as 601 nM; against PI3K gamma it was 9860 nM.

`CC(c1nc2ccc(F)cn2c(=O)c1-c1cccc(F)c1)n1nc(-c2cnc(OCC(F)(F)F)s2)c2c(N)ncnc21` (stereo not drawn) [WX028]: the IC50 was 330 nM against PI3K delta and 2940 nM on PI3K gamma.

Regarding `CC(c1nc2ccc(F)cn2c(=O)c1-c1cccc(F)c1)n1nc(-c2cnc(OC3CC3)s2)c2c(N)ncnc21` (stereo not drawn) [WX030], the values for the IC50 at PI3K delta and against PI3K gamma were 45.6 nM and 1190 nM, respectively.

Turning to `CC(c1nc2ccc(F)cn2c(=O)c1-c1cccc(F)c1)n1nc(-c2cnc(C(C)(C)C)s2)c2c(N)ncnc21` (stereo not drawn) [WX032], in data set [1], the half-life is 18.4 h, the Cmax stood at 1500 nM and the “Oral DNAUC (dose-normalized area under curve)” value was 2662 nM · h/mpk. This molecule also yielded an IC50 at PI3K delta of 16.3 nM. On PI3K gamma, this molecule came in with an IC50 of 1740 nM.

As for `CNc1ncc(-c2nn(C(C)c3nc4ccc(F)cn4c(=O)c3-c3cccc(F)c3)c3ncnc(N)c23)s1` (stereo not drawn) [WX034], the IC50 against PI3K delta stood at 4 nM; at PI3K gamma it was 408 nM.

As to `CSc1ccc(-c2nn(C(C)c3nc4ccc(F)cn4c(=O)c3-c3cccc(F)c3)c3ncnc(N)c23)cn1` (stereo not drawn) [WX036], the figures for the IC50 on PI3K delta and against PI3K gamma were 66.6 nM and 1210 nM, respectively.

Regarding `Cc1cccc2nc(C(C)n3nc(-c4ccc(OC(C)C)c(F)c4)c4c(N)ncnc43)c(-c3cccc(F)c3)c(=O)n12` (stereo not drawn) [WX040], the IC50 at PI3K delta stood at 271 nM; on PI3K gamma, 455 nM.

For the molecule `CC(c1nc2ccc(F)cn2c(=O)c1-c1cccc(F)c1)n1nc(-c2cnc(N(C)C)s2)c2c(N)ncnc21` (stereo not drawn) [WX046], in data set [1], the half-life is 1.73 h, the Cmax came out at 1560 nM and the “Oral DNAUC (dose-normalized area under curve)” value is listed as 1648 nM · h/mpk. The same molecule displayed a half-inhibitory concentration (IC50) against PI3K delta of 3.48 nM. Inhibition against PI3K gamma was half-maximal at 494 nM (IC50).

On to `CC(C)Oc1ncc(-c2nn(C(C)c3nc4ccc(F)cn4c(=O)c3-c3cccc(F)c3)c3ncnc(N)c23)s1` (stereo not drawn) [WX048], for which the IC50 against PI3K delta was 72.5 nM; against PI3K gamma it was 2030 nM.

With `Cc1ncc(-c2nn(C(C)c3nc4ccc(F)cn4c(=O)c3-c3cccc(F)c3)c3ncnc(N)c23)s1` (stereo not drawn) [WX050], in data set [1], the half-life was 2.38 h, the peak level (Cmax) was 1260 nM and the “Oral DNAUC (dose-normalized area under curve)” value was determined as 1513 nM · h/mpk. This molecule had an IC50 against PI3K delta of 13.9 nM. In addition, the IC50 on PI3K gamma is 582 nM.

`CC(c1nc2ccc(F)cn2c(=O)c1-c1cccc(F)c1)n1nc(-c2cnc3c(c2)OCCO3)c2c(N)ncnc21` (stereo not drawn) [WX056] returned a Cmax in data set [1] of 4950 nM. Moreover, in data set [1], the “Oral DNAUC (dose-normalized area under curve)” value turned out to be 2037 nM · h/mpk. The IC50 is above 10000 nM on PI3K beta, above 10000 nM against PI3K alpha, 188 nM at PI3K delta and 735 nM at PI3K gamma.

As usually defined, the IC50 is the concentration at which inhibition is half-maximal. As a reminder, the Cmax is the peak of the concentration-time curve.
